In ChEMBL document CHEMBL1147514 (Bioorg Med Chem Lett, 2004):
Values joined by “and” are separate entries in the source; they are usually repeats but may differ in a detail not shown here. Equal entries are not always repeated.

Tests used:
[1] = biological target: Neuronal acetylcholine receptor subunit alpha-7 (Rattus norvegicus, UniProt Q05941); test: Inhibition of [125I]-iodo-MLA binding to Nicotinic acetylcholine receptor alpha-7 from rat brain membranes; type: cell membranes, Membrane
[2] = biological target: T1, Neuronal acetylcholine receptor; alpha4/beta2 (Rattus norvegicus, UniProt P09483+P12390); test: Inhibition of [3H]epibatidine binding to Nicotinic acetylcholine receptor alpha4-beta2 from rat membranes
[3] = organism: Mus musculus; test: Antinociceptive activity was tested in the mouse tail-flick test; type: functional
[4] = organism: Mus musculus; test: Antinociceptive activity was tested in the mouse hot plate test; type: functional
[5] = organism: Mus musculus; test: Blockage of Antinociceptive activity of nicotine was tested in the mouse hot plate test; type: functional
[6] = organism: Mus musculus; test: Blockage of Antinociceptive activity of nicotine was tested in the mouse tail flick test; type: functional
[7] = test system: Mus musculus; test: Antinociceptive activity was tested in the mouse hot plate test at 15 mg/kg; type: functional
[8] = test system: Mus musculus; test: Antinociceptive activity was tested in the mouse tail-flick test at 15 mg/kg; type: functional
[9] = biological target: T1, Neuronal acetylcholine receptor; alpha4/beta2; test: Inhibition of [3H]nicotine binding to Nicotinic acetylcholine receptor alpha4-beta2 from rat membranes
[10] = biological target: Neuronal acetylcholine receptor; alpha3/beta4 (Rattus norvegicus) (UniProt P04757+P12392); test: Functional potency measured as maximum stimulation at rat Nicotinic acetylcholine receptor alpha3-beta4 expressed in Xenopus oocytes; type: cell-based; settings: Oocyte
[11] = biological target: Neuronal acetylcholine receptor; alpha4/beta4 (Rattus norvegicus) (UniProt P09483+P12392); test: Functional potency measured as maximum stimulation at rat Nicotinic acetylcholine receptor alpha4-beta4 expressed in Xenopus oocytes; type: cell-based; settings: Oocyte
[12] = biological target: Neuronal acetylcholine receptor; alpha4/beta2 (Rattus norvegicus) (UniProt P09483+P12390); test: Functional potency measured as maximum stimulation at rat Nicotinic acetylcholine receptor alpha4-beta2 expressed in Xenopus oocytes; type: cell-based; settings: Oocyte
[13] = biological target: T1, Neuronal acetylcholine receptor; alpha4/beta2; test: Binding affinity towards rat Nicotinic acetylcholine receptor alpha4-beta2 expressed in Xenopus oocytes using [3H]epibatidine as radioligand; type: cell-based, Oocyte
[14] = biological target: Neuronal acetylcholine receptor; alpha3/beta2 (Rattus norvegicus, UniProt P04757+P12390); test: Binding affinity towards rat Nicotinic acetylcholine receptor alpha3-beta2 expressed in Xenopus oocytes using [3H]epibatidine as radioligand; type: cell-based, Oocyte
[15] = biological target: Neuronal acetylcholine receptor; alpha2/beta2 (Rattus norvegicus, UniProt P12389+P12390); test: Binding affinity towards rat alpha2-beta2 neuronal nAChR expressed in Xenopus oocytes using [3H]epibatidine as radioligand; type: cell-based, Oocyte
[16] = biological target: T2, Neuronal acetylcholine receptor; alpha4/beta4 (Rattus norvegicus, UniProt P09483+P12392); test: Binding affinity towards rat Nicotinic acetylcholine receptor alpha4-beta4 expressed in Xenopus oocytes using [3H]epibatidine as radioligand; type: cell-based, Oocyte
[17] = biological target: T1, Neuronal acetylcholine receptor; alpha4/beta2; test: Functional potency measured as stimulation at rat Nicotinic acetylcholine receptor alpha4-beta2 expressed in Xenopus oocytes; type: cell-based, Oocyte
[18] = biological target: T3, Neuronal acetylcholine receptor; alpha3/beta4 (Rattus norvegicus, UniProt P04757+P12392); test: Functional potency measured as stimulation at rat Nicotinic acetylcholine receptor alpha3-beta4 expressed in Xenopus oocytes; type: cell-based, Oocyte
[19] = biological target: T3, Neuronal acetylcholine receptor; alpha3/beta4; test: Binding affinity towards rat Nicotinic acetylcholine receptor alpha3-beta4 expressed in Xenopus oocytes using [3H]epibatidine as radioligand; type: cell-based, Oocyte
[20] = biological target: T2, Neuronal acetylcholine receptor; alpha4/beta4; test: Functional potency measured as stimulation at rat Nicotinic acetylcholine receptor alpha4-beta4 expressed in Xenopus oocytes; type: cell-based, Oocyte
[21] = organism: Mus musculus; test: Antinociceptive activity was tested in the mouse tail-flick test at 112 nM; type: functional
[22] = biological target: Neuronal acetylcholine receptor; alpha2/beta4 (Rattus norvegicus, UniProt P12389+P12392); test: Binding affinity towards rat Nicotinic acetylcholine receptor alpha2-beta4 expressed in Xenopus oocytes using [3H]epibatidine as radioligand; type: cell-based, Oocyte
[23] = organism: Mus musculus; test: animal or person
[24] = organism: Mus musculus; test: animal or person; settings: Tail
[25] = organism: Mus musculus; test: Antinociceptive activity was tested in the mouse tail-flick test from ref 17; type: functional
[26] = organism: Mus musculus; test: Spontaneous activity in mice from ref 15; type: functional
[27] = organism: Mus musculus; test: Antinociceptive activity was tested in the mouse tail-flick test from ref 15; type: functional
[28] = organism: Mus musculus; test: Drug discrimination in mice from ref 15
[29] = organism: Mus musculus; test: Blockage of antinociceptive activity of nicotine was tested in the mouse hot plate test; type: functional
[30] = biological target: T1, Neuronal acetylcholine receptor; alpha4/beta2; test: [3H](+/-)-epibatidine binding to Nicotinic acetylcholine receptor alpha4-beta2 from rat membranes
[31] = biological target: T1, Neuronal acetylcholine receptor; alpha4/beta2; test: inhibition of [3H]nicotine binding to alpha4-beta2 nACh receptor from rat membranes from ref 18
[32] = test system: Mus musculus; test: Blockage of antinociceptive activity was tested in the mouse hot plate test at 0.01 mg/kg; type: functional
[33] = test system: Mus musculus; test: Blockage of antinociceptive activity was tested in the mouse tail-flick test at 0.01 mg/kg; type: functional
[34] = organism: Mus musculus; test: Antinociceptive activity was tested in the mouse tail-flick test at 32.5 nM; type: functional

Sequence of Neuronal acetylcholine receptor; alpha2/beta2 (P12389 whole entry): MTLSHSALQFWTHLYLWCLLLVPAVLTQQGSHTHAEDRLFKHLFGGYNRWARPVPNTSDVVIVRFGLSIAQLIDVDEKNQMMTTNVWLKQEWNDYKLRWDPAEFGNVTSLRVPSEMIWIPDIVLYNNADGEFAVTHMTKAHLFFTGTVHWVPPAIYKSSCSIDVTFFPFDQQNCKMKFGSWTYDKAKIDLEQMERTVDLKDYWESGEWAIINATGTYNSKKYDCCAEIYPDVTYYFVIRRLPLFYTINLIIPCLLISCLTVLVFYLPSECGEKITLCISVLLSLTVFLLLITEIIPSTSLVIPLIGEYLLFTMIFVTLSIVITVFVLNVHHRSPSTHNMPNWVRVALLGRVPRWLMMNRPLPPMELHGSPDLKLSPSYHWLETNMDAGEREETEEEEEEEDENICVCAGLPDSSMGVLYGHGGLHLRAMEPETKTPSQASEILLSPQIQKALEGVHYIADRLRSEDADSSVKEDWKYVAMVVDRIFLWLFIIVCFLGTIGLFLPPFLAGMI
Sequence of Neuronal acetylcholine receptor; alpha2/beta2 (P12390 whole entry): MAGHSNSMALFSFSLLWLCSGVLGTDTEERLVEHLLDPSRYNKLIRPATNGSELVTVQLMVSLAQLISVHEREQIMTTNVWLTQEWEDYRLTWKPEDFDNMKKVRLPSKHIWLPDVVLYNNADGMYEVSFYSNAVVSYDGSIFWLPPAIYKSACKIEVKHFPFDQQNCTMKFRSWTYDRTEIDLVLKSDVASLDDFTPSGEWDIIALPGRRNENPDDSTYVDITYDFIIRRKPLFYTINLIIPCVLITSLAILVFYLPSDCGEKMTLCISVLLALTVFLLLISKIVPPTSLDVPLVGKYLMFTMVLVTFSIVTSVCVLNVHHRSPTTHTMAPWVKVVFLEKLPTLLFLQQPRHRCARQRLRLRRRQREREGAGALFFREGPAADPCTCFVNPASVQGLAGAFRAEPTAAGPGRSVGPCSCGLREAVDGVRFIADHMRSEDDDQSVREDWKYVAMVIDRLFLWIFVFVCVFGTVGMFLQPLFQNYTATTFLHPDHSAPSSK
Sequence of Neuronal acetylcholine receptor; alpha2/beta4 (P12389 whole entry): as the sequence (P12389 whole entry) above
Sequence of Neuronal acetylcholine receptor; alpha2/beta4 (P12392 whole entry): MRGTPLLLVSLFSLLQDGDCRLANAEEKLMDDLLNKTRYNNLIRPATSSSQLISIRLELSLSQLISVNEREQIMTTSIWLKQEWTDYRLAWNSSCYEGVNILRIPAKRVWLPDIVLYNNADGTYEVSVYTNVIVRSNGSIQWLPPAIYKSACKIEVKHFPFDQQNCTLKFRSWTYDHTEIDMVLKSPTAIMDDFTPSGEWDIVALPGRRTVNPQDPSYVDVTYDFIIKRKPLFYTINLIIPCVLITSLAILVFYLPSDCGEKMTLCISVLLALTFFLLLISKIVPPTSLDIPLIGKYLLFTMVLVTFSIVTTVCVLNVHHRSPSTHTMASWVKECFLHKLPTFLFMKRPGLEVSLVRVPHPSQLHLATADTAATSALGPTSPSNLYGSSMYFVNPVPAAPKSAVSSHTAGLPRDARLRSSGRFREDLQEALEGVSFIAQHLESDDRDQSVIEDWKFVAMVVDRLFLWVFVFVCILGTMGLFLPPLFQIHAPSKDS
Sequence of Neuronal acetylcholine receptor subunit alpha-7 (Q05941 whole entry): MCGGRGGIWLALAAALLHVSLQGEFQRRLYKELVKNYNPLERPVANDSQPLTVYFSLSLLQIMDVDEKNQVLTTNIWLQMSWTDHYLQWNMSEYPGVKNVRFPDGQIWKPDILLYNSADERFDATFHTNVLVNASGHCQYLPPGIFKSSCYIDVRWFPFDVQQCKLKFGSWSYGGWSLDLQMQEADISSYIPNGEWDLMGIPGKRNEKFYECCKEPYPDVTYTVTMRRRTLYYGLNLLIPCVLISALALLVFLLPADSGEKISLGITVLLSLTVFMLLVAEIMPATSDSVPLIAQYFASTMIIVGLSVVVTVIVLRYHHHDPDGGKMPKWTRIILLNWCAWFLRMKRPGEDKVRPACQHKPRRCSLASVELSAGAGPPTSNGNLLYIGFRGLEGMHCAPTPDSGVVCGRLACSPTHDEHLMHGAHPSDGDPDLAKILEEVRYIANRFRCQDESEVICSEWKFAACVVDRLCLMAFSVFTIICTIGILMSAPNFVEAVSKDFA
T3 sequence (P04757 whole entry): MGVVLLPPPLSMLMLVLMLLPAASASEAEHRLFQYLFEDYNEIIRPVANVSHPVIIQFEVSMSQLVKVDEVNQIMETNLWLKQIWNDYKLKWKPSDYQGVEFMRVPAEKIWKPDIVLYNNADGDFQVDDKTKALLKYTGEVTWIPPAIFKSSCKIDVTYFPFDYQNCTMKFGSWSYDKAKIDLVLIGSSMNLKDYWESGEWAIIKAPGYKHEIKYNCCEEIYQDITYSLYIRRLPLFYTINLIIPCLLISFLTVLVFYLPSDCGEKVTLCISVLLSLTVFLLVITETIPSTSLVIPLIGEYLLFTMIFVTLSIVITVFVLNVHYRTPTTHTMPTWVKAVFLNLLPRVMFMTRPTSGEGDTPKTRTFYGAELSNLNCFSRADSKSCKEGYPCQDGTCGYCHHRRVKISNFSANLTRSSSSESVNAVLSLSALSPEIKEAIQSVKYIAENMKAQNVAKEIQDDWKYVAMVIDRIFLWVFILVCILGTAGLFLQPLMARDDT
T3 sequence (P12392 whole entry): as the sequence (P12392 whole entry) above
Sequence of Neuronal acetylcholine receptor; alpha3/beta2 (P04757 whole entry): as the sequence (P04757 whole entry) above
Sequence of Neuronal acetylcholine receptor; alpha3/beta2 (P12390 whole entry): as the sequence (P12390 whole entry) above
T2 sequence (P09483 whole entry): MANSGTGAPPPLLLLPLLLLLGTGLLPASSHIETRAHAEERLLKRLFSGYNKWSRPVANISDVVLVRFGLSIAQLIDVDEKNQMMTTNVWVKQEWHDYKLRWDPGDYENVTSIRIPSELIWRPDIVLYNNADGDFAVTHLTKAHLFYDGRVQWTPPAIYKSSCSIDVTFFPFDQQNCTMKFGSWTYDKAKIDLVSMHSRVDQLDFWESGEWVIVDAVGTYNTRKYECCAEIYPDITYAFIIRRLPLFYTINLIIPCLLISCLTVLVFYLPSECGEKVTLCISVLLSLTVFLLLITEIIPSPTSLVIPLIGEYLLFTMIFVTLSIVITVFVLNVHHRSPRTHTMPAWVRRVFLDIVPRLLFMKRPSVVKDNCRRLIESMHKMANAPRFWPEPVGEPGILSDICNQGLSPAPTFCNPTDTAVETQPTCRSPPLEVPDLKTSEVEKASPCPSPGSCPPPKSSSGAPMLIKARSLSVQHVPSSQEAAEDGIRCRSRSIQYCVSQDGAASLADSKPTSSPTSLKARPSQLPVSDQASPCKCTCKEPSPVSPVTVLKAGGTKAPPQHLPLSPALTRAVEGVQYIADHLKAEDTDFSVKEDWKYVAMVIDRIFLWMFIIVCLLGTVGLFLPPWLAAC
T2 sequence (P12392 whole entry): as the sequence (P12392 whole entry) above
T1 sequence (P09483 whole entry): as the sequence (P09483 whole entry) above
T1 sequence (P12390 whole entry): as the sequence (P12390 whole entry) above

Clc1cc(C2CC3CCC2N3)cnc1Cl (stereo unspecified)
Ki [1]: 1.12 nM | Ki [2]: 0.014 nM | ED50 [3]: 50 µg/kg | ED50 [4]: 30 µg/kg

Fc1ncc(C2CC3CCC2N3)cc1-c1ccccc1 (racemic)
AD50 [5]: 1200 µg/kg | AD50 [6]: 500 µg/kg | inhibition in vivo at 15 mg/kg [7]: 4% | inhibition in vivo at 15 mg/kg [8]: 3% | Ki [2]: 0.24 nM

Fc1cc(C2CC3CCC2N3)cnc1Cl (stereo unspecified)
Ki [2]: 0.025 nM | ED50 [3]: 8 µg/kg | ED50 [4]: 9 µg/kg

CCCN1C2CCC1C(c1ccc(Cl)nc1)C2 (single isomer, unassigned; (-))
Ki [9]: 10.8 nM

Fc1ncc([C@H]2C[C@@H]3CC[C@H]2N3)cc1-c1ccccc1
AD50 [5]: 700 µg/kg | AD50 [6]: 80 µg/kg | inhibition in vivo at 15 mg/kg [7]: 10% | inhibition in vivo at 15 mg/kg [8]: 5% | Ki [2]: 0.26 nM

CC(=O)N1C2CCC1C(c1ccc(Cl)nc1)C2 (stereo unspecified)
ED50 [3]: > 1000 µg/kg

CC(=O)OCC[N+](C)(C)C
Max [10]: 100% | Max [11]: 98% | Max [12]: 95%

O=S(=O)(OC(F)(F)F)c1ccc(C2CC3CCC2N3)cn1 (stereo unspecified)
Ki [13]: ~100 nM | Ki [14]: ~100 nM | Ki [15]: > 10 nM

CN1[C@@H]2CC[C@H]1[C@H](c1ccc(Cl)nc1)C2
Ki [9]: 0.26 nM

Nc1ccc(C2CC3CCC2N3)cn1 (stereo unspecified)
Ki [13]: 0.35 nM | Ki [16]: 4.3 nM | Max [10]: 82% | EC50 [17]: 7600 nM | EC50 [18]: 3240 nM | Ki [19]: 7.2 nM | Ki [14]: 0.077 nM | EC50 [20]: 1840 nM | Activity [21]: 57% | Max [11]: 41% | Ki [22]: 3.5 nM | Max [12]: 29% | Ki [15]: 0.062 nM

Clc1ncc(C2CC3CCC2N3)cc1Br (stereo unspecified)
Ki [1]: 152 nM | ED50 [3]: 30 µg/kg | ED50 [4]: 20 µg/kg

Clc1ccc(C2CC3CCC2N3)cn1 (stereo unspecified) [EPIBATIDINE]
Max [10]: 39% | ED50 [23]: 4 µg/kg | ED50 [3]: > 1000 µg/kg | Max [11]: 71% | ED50 [24]: 6 µg/kg | Max [12]: 58%

Fc1ncc([C@@H]2C[C@H]3CC[C@@H]2N3)cc1-c1ccccc1
AD50 [5]: 2400 µg/kg | AD50 [6]: 1000 µg/kg | inhibition in vivo at 15 mg/kg [7]: 8% | inhibition in vivo at 15 mg/kg [8]: 7% | Ki [2]: 0.24 nM

Clc1ncc(C2CC3CCC2N3)cc1-c1ccccc1 (stereo unspecified)
ED50 [3]: 700 µg/kg | ED50 [4]: 1000 µg/kg

Clc1ccc([C@@H]2C[C@H]3CC[C@@H]2N3)cn1 [(+)-EPIBATIDINE]
ED50 [25]: 7 µg/kg | ED50 [26]: 1.2 µg/kg | ED50 [27]: 6.6 µg/kg | ED50 [28]: 0.9 µg/kg

Cc1ccc(C2CC3CCC2N3)cn1 (stereo unspecified)
Ki [9]: 0.13 nM

Brc1ccc(C2CC3CCC2N3)cn1 (stereo unspecified)
Ki [13]: 0.01 nM | Ki [16]: 0.044 nM | Max [10]: 82% | EC50 [17]: 94 nM | EC50 [18]: 189 nM | Ki [19]: 0.22 nM | Ki [14]: 0.004 nM | EC50 [20]: 20 nM | Max [11]: 102% | Ki [22]: 0.055 nM | Max [12]: 65% | Ki [15]: 0.013 nM

Nc1cc(C2CC3CCC2N3)cnc1Cl (stereo unspecified)
Ki [1]: 13.9 nM | Ki [2]: 0.01 nM | ED50 [3]: 20 µg/kg | ED50 [4]: 20 µg/kg | AD50 [29]: 0.03 µg/kg and 0.06 µg/kg

CCN1C2CCC1C(c1ccc(Cl)nc1)C2 (racemic)
Ki [30]: 13.6 nM

[N-]=[N+]=Nc1cc(C2CC3CCC2N3)cnc1Cl (stereo unspecified) [AZIDOEPIBATIDINE]
Ki [1]: 9.7 nM | Ki [2]: 0.027 nM

Fc1ccc(C2CC3CCC2N3)cn1 (stereo unspecified)
Ki [13]: 0.0092 nM | Ki [16]: 0.48 nM | Max [10]: 40% | EC50 [17]: 254 nM | EC50 [18]: 319 nM | Ki [19]: 2.1 nM | Ki [14]: 0.0038 nM | Ki [31]: 0.037 nM | EC50 [20]: 239 nM | Max [11]: 131% | Ki [22]: 1.2 nM | Max [12]: 41% | Ki [15]: 0.0024 nM

O=c1ccc(C2CC3CCC2N3)c[nH]1 (stereo unspecified)
Ki [13]: ~100 nM | Ki [14]: > 100 nM | Ki [15]: > 100 nM

Clc1ncc(C2CC3CCC2N3)cc1I (stereo unspecified)
Activity [32]: 0% | Ki [2]: 0.008 nM | ED50 [3]: 240 µg/kg | ED50 [4]: 140 µg/kg | Activity [33]: 4%

c1cncc(C2CC3CCC2N3)c1 (stereo unspecified) [DESCHLOROEPIBATIDINE]
Ki [13]: 0.0085 nM | Ki [16]: 3.2 nM | Max [10]: 61% | EC50 [17]: 3630 nM | EC50 [18]: 702 nM | Ki [19]: 11 nM | Ki [14]: 0.0031 nM | EC50 [20]: 982 nM | Max [11]: 147% | Ki [22]: 3.3 nM | Max [12]: 112% | Ki [15]: 0.028 nM

Ic1ccc(C2CC3CCC2N3)cn1 (stereo unspecified)
Ki [2]: 0.09 nM

CN(C)c1ccc(C2CC3CCC2N3)cn1 (stereo unspecified)
Activity [34]: 10% | Ki [13]: > 100 nM | Ki [14]: > 100 nM | Ki [15]: > 100 nM

Clc1ccc([C@H]2C[C@@H]3CC[C@H]2N3)cn1 [(-)-EPIBATIDINE]
ED50 [25]: 9 µg/kg | ED50 [26]: 1.8 µg/kg | ED50 [27]: 6.1 µg/kg | ED50 [3]: 6 µg/kg | ED50 [4]: 4 µg/kg | ED50 [28]: 1 µg/kg

CN1[C@H]2CC[C@@H]1[C@@H](c1ccc(Cl)nc1)C2
ED50 [3]: 9 µg/kg | Ki [9]: 0.11 nM
